Data taken from PubChem BioAssay AID248 (DTP/NCI, 2004).
Where “and” joins values, the source holds several entries; their conditions need not be identical. Equal values may be shown once. Toxic doses and inconclusive results are not listed. Rule as the data show it: active = T/C of 150% or more; inactive = T/C below 125%. Square brackets hold non-standard residues; d marks the D form. Peptide text beside a SMILES is read from it. * marks the point of attachment. ξ: configuration not given here. Cbz = O=C(OCc1ccccc1)*; ξNle = CCCCC(N)C(=O)O

Tested on: L1210 leukemia ip in BDF1 mice, survival T/C
Experiment: NCI In Vivo Anticancer Drug Screen. Data for tumor model L1210 Leukemia (intraperitoneal) in B6D2F1 (BDF1) mice
Details: endpoint: mean survival time, higher = longer survival
Method in brief: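 Transplanted-tumor mice were given test agent; controls received vehicle only. Survival readings from the two groups were divided (treated over control).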

[1] = dose: 100.0 mg/kg/injection, schedule: Q01DX009 (ip), vehicle: Klucel (hydroxypropylcellulose) (HPC)
[2] = dose: 200.0 mg/kg/injection, schedule: Q01DX009 (ip), vehicle: Klucel (hydroxypropylcellulose) (HPC)
[3] = dose: 100.0 mg/kg/injection, schedule: Q01DX001 (ip), vehicle: saline
[4] = dose: 200.0 mg/kg/injection, schedule: Q01DX001 (ip), vehicle: saline
[5] = dose: 400.0 mg/kg/injection, schedule: Q01DX001 (ip), vehicle: saline
[6] = dose: 100.0 mg/kg/injection, schedule: Q04DX003 (ip), vehicle: saline with Tween-80
[7] = dose: 200.0 mg/kg/injection, schedule: Q04DX003 (ip), vehicle: saline with Tween-80
[8] = dose: 400.0 mg/kg/injection, schedule: Q04DX003 (ip), vehicle: saline with Tween-80
[9] = dose: 100.0 mg/kg/injection, schedule: Q01DX001 (ip), vehicle: carboxymethylcellulose (CMC)
[10] = dose: 200.0 mg/kg/injection, schedule: Q01DX001 (ip), vehicle: carboxymethylcellulose (CMC)
[11] = dose: 400.0 mg/kg/injection, schedule: Q01DX001 (ip), vehicle: carboxymethylcellulose (CMC)
[12] = dose: 25.0 mg/kg/injection, schedule: Q04DX002 (ip), vehicle: Klucel (hydroxypropylcellulose) (HPC)
[13] = dose: 50.0 mg/kg/injection, schedule: Q04DX002 (ip), vehicle: Klucel (hydroxypropylcellulose) (HPC)
[14] = dose: 25.0 mg/kg/injection, schedule: Q01DX009 (ip), vehicle: Klucel (hydroxypropylcellulose) (HPC)
[15] = dose: 100.0 mg/kg/injection, schedule: Q04DX002 (ip), vehicle: Klucel (hydroxypropylcellulose) (HPC)
[16] = dose: 100.0 mg/kg/injection, schedule: Q04DX003 (ip), vehicle: Klucel (hydroxypropylcellulose) (HPC)
[17] = dose: 200.0 mg/kg/injection, schedule: Q04DX003 (ip), vehicle: Klucel (hydroxypropylcellulose) (HPC)
[18] = dose: 400.0 mg/kg/injection, schedule: Q04DX003 (ip), vehicle: Klucel (hydroxypropylcellulose) (HPC)
[19] = dose: 50.0 mg/kg/injection, schedule: Q01DX009 (ip), vehicle: Klucel (hydroxypropylcellulose) (HPC)
[20] = dose: 100.0 mg/kg/injection, schedule: Q01DX009 (ip), vehicle: saline
[21] = dose: 100.0 mg/kg/injection, schedule: Q04DX003 (ip), vehicle: saline
[22] = dose: 200.0 mg/kg/injection, schedule: Q01DX009 (ip), vehicle: saline
[23] = dose: 200.0 mg/kg/injection, schedule: Q04DX003 (ip), vehicle: saline
[24] = dose: 400.0 mg/kg/injection, schedule: Q01DX009 (ip), vehicle: saline
[25] = dose: 400.0 mg/kg/injection, schedule: Q04DX003 (ip), vehicle: saline

Measured: T/C

CCOc1cc(/C=N/NC(=O)c2ccccc2NC(=O)c2ccccc2)ccc1OC
inactive: [1] 92 % of control | [2] 92 % of control | dose: 400.0 mg/kg/injection, schedule: Q01DX009 (ip), vehicle: Klucel (hydroxypropylcellulose) (HPC) 101 % of control

COC(=O)CCC(N=C=O)C(=O)OC (configuration not stated)
inactive: [3] 101 % of control | [4] 98 % of control | [5] 106 % of control

CCCC(CC)NC(N)=O (configuration not stated)
inactive: [6] 107 % of control | [7] 95 % of control | [8] 109 % of control

Clc1ccc(Cl)c(Nc2ccnc(SCc3ccccc3)n2)c1
inactive: dose: 100.0 mg/kg/injection, schedule: Q01DX Z (ip), vehicle: methylcellulose (MC) 92 % of control | dose: 200.0 mg/kg/injection, schedule: Q01DX Z (ip), vehicle: methylcellulose (MC) 88 % of control

CC(=O)/C(C)=C\c1ccc(O)cc1
inactive: [6] 91 % of control | [7] 98 % of control | [8] 102 % of control

O=C1c2ccccc2-c2cc(Cl)c(N=Cc3ccc4c(c3)OCO4)cc21
inactive: [9] 98 % of control | [10] 102 % of control | [11] 109 % of control

O=C(O)c1ccccc1Cl.[Ni]
inactive: [12] 94 % of control | [13] 109 % of control

CCCCCCCCCCCc1nc(N)nc(NCCc2ccccc2)n1
inactive: dose: 12.5 mg/kg/injection, schedule: Q01DX009 (ip), vehicle: Klucel (hydroxypropylcellulose) (HPC) 95 % of control | [14] 89 % of control | [13] 87 % of control | [15] 93 % of control | dose: 200.0 mg/kg/injection, schedule: Q04DX002 (ip), vehicle: Klucel (hydroxypropylcellulose) (HPC) 97 % of control

CCOC(=O)Cn1c(=O)c2ccccc2c2cc(Br)ccc21
inactive: dose: 100.0 mg/kg/injection, schedule: Q01DX001 (ip), vehicle: Klucel (hydroxypropylcellulose) (HPC) 89 % of control | dose: 200.0 mg/kg/injection, schedule: Q01DX001 (ip), vehicle: Klucel (hydroxypropylcellulose) (HPC) 100 % of control | dose: 400.0 mg/kg/injection, schedule: Q01DX001 (ip), vehicle: Klucel (hydroxypropylcellulose) (HPC) 92 % of control

CC1OC(n2cnc3c(N)nc(F)nc32)C(O)C1O (configuration not stated)
inactive: dose: 37.5 mg/kg/injection, schedule: Q01DX001 (ip), vehicle: other 112 % of control

CC(=O)Nc1cc(Cl)cc(Cl)c1
inactive: [6] 100 % of control | [7] 102 % of control | [8] 96 % of control

CCCCC(NC(=O)CNC(=O)CNC(=O)OCc1ccccc1)C(=O)O (stereo not drawn) (Cbz-Gly-Gly-[ξNle]-OH)
inactive: [16] 108 % of control | [17] 104 % of control | [18] 96 % of control

OC(c1ccccc1)(c1ccccc1)C(O)(c1ccccc1)c1ccccc1
inactive: dose: 12.5 mg/kg/injection, schedule: Q04DX002 (ip), vehicle: Klucel (hydroxypropylcellulose) (HPC) 94 % of control | [12] 97 % of control and 122 % of control | [13] 115 % of control and 91 % of control | [15] 97 % of control | dose: 100.0 mg/kg/injection, schedule: Q04DX002 (ip), vehicle: gum acacia 92 % of control | dose: 100.0 mg/kg/injection, schedule: Q04DX002 (ip), vehicle: saline with Tween-80 102 % of control | [16] 96 % of control | dose: 200.0 mg/kg/injection, schedule: Q04DX002 (ip), vehicle: gum acacia 89 % of control | dose: 200.0 mg/kg/injection, schedule: Q04DX002 (ip), vehicle: saline with Tween-80 99 % of control | [17] 88 % of control | dose: 400.0 mg/kg/injection, schedule: Q04DX002 (ip), vehicle: gum acacia 95 % of control | dose: 400.0 mg/kg/injection, schedule: Q04DX002 (ip), vehicle: saline with Tween-80 99 % of control | [18] 95 % of control

COC(=O)c1ncn(/C=C/c2ccccc2)c1C(=O)O
inactive: [16] 92 % of control | [17] 91 % of control | [18] 87 % of control

O=C1NC(=O)C2(CCc3ccccc3C2)N1 (configuration not stated)
inactive: [19] 96 % of control | [1] 96 % of control | [16] 100 % of control | dose: 100.0 mg/kg/injection, schedule: Q04DX003 (ip), vehicle: acetone 96 % of control | [2] 93 % of control | [17] 97 % of control | dose: 200.0 mg/kg/injection, schedule: Q04DX003 (ip), vehicle: acetone 95 % of control | [18] 97 % of control | dose: 400.0 mg/kg/injection, schedule: Q04DX003 (ip), vehicle: acetone 95 % of control

CC#CC(O)(C(=O)OC)c1ccccc1 (configuration not stated)
inactive: [9] 94 % of control | [10] 102 % of control | [11] 108 % of control

CCN1CCC2C[N+](C)([O-])CCN2C1=O (configuration not stated)
inactive: [6] 93 % of control | [7] 95 % of control | [8] 98 % of control

CCCSCSCCC
inactive: [3] 105 % of control | [20] 105 % of control | [21] 98 % of control | [4] 98 % of control | [22] 97 % of control | [23] 104 % of control | [5] 98 % of control | [24] 100 % of control | [25] 97 % of control

CCCCCCCCCCN1C(=O)c2ccccc2S1(=O)=O
inactive: [20] 95 % of control | [21] 97 % of control | [22] 97 % of control | [23] 100 % of control | [24] 97 % of control | [25] 95 % of control

Cc1cc(OS(=O)(=O)/C=C/c2ccccc2)c(C(C)C)cc1Cl
inactive: dose: 100.0 mg/kg/injection, schedule: Q01DX001 (ip), vehicle: acetone 93 % of control | dose: 100.0 mg/kg/injection, schedule: Q01DX009 (ip), vehicle: acetone 100 % of control | dose: 200.0 mg/kg/injection, schedule: Q01DX001 (ip), vehicle: acetone 98 % of control | dose: 200.0 mg/kg/injection, schedule: Q01DX009 (ip), vehicle: acetone 98 % of control | dose: 400.0 mg/kg/injection, schedule: Q01DX001 (ip), vehicle: acetone 98 % of control | dose: 400.0 mg/kg/injection, schedule: Q01DX009 (ip), vehicle: acetone 95 % of control

Cc1cccc(CN2CCN(C(c3ccccc3)c3ccc(Cl)cc3)CC2)c1 (configuration not stated)
inactive: [14] 100 % of control | dose: 25.0 mg/kg/injection, schedule: Q04DX003 (ip), vehicle: Klucel (hydroxypropylcellulose) (HPC) 100 % of control | [19] 100 % of control | dose: 50.0 mg/kg/injection, schedule: Q04DX003 (ip), vehicle: Klucel (hydroxypropylcellulose) (HPC) 110 % of control | [1] 94 % of control | [16] 105 % of control | [2] 87 % of control | [17] 118 % of control | [18] 89 % of control

CCOC(=O)C(Cc1ccccc1)C(=O)OCC
inactive: [6] 96 % of control | [7] 97 % of control | [8] 96 % of control

CNC(C)(C)C(SSSC(c1ccc(Cl)cc1)C(C)(C)NC)c1ccc(Cl)cc1 (configuration not stated)
inactive: dose: 12.5 mg/kg/injection, schedule: Q01DX009 (ip), vehicle: saline with Tween-80 103 % of control | dose: 12.5 mg/kg/injection, schedule: Q04DX003 (ip), vehicle: saline with Tween-80 98 % of control | dose: 25.0 mg/kg/injection, schedule: Q01DX009 (ip), vehicle: saline with Tween-80 98 % of control | dose: 25.0 mg/kg/injection, schedule: Q04DX003 (ip), vehicle: saline with Tween-80 100 % of control | dose: 50.0 mg/kg/injection, schedule: Q01DX009 (ip), vehicle: saline with Tween-80 97 % of control | dose: 50.0 mg/kg/injection, schedule: Q04DX003 (ip), vehicle: saline with Tween-80 96 % of control

Nc1ccc(Cl)cc1C(=O)c1ccccn1
inactive: [6] 100 % of control | [7] 108 % of control | [8] 97 % of control
